Key:
[1] = target: T1, HiBit-BRG1 fusion protein (Homo sapiens, UniProt P51532); assay: HiBiT-BRG1 cell-based degradation assay (Nano-Glo HiBiT Lytic Detection, 24 h); conditions: stable HeLa cell line expressing HiBit-BRG1 and LgBit; for Dmax: read-out: BRG1 HiBit Degradation Maximum (%); for DC50: read-out: BRMG1 HiBit Degradation IC50
T1 construct: expressed in transfected cells
Description: (§1) Procedure: A stable HeLa cell line expressing HiBiT-BRM was generated. On day 0, 5000 cells were seeded in 40 μL of media into each well of 384-well cell culture plates. On day 1, cells were treated with 120 nL DMSO or 120 nL of 3-fold serially DMSO-diluted compounds (10 points in duplicate with 30 μM as final top dose). Subsequently plates were incubated for 24 h in a standard tissue culture incubator and equilibrated at room temperature for 15 minutes. Nano-Glo HiBiT Lytic Detection System (Promega N3050) reagent was freshly prepared and 20 ul was added to each well. Upon addition of this LgBit-containing reagent, the HiBiT and LgBiT proteins associate to form the luminescent NanoBiT Iuciferase. The plates were shaken for 10 minutes at room temperature and the bioluminescence read using an EnVision plate reader (PerkinElmer).
For measurement of BRG1 degradation, a stable HeLa cell line expressing HiBit-BRG1 and LgBit was generated. The same protocol as above was then followed.
(§2) The degradation % was calculated using the following formula: % degradation=100%-100%×(LumSample−LumLC)/(LumHC−LumLC). DMSO treated cells are employed as High Control (HC) and 2 μM of a known BRM/BRG1 degrader standard treated cells are employed as Low Control (LC).

HiBit-BRM fusion protein = target: T2, HiBit-BRM fusion protein (Homo sapiens, UniProt P51531); assay: HiBiT-BRM cell-based degradation assay (Nano-Glo HiBiT Lytic Detection, 24 h); conditions: stable HeLa cell line expressing HiBiT-BRM; for DC50: read-out: BRM HiBit Degradation IC50
T2 construct: expressed in transfected cells
T2 sequence (P51531 whole entry, the tested form may be a part): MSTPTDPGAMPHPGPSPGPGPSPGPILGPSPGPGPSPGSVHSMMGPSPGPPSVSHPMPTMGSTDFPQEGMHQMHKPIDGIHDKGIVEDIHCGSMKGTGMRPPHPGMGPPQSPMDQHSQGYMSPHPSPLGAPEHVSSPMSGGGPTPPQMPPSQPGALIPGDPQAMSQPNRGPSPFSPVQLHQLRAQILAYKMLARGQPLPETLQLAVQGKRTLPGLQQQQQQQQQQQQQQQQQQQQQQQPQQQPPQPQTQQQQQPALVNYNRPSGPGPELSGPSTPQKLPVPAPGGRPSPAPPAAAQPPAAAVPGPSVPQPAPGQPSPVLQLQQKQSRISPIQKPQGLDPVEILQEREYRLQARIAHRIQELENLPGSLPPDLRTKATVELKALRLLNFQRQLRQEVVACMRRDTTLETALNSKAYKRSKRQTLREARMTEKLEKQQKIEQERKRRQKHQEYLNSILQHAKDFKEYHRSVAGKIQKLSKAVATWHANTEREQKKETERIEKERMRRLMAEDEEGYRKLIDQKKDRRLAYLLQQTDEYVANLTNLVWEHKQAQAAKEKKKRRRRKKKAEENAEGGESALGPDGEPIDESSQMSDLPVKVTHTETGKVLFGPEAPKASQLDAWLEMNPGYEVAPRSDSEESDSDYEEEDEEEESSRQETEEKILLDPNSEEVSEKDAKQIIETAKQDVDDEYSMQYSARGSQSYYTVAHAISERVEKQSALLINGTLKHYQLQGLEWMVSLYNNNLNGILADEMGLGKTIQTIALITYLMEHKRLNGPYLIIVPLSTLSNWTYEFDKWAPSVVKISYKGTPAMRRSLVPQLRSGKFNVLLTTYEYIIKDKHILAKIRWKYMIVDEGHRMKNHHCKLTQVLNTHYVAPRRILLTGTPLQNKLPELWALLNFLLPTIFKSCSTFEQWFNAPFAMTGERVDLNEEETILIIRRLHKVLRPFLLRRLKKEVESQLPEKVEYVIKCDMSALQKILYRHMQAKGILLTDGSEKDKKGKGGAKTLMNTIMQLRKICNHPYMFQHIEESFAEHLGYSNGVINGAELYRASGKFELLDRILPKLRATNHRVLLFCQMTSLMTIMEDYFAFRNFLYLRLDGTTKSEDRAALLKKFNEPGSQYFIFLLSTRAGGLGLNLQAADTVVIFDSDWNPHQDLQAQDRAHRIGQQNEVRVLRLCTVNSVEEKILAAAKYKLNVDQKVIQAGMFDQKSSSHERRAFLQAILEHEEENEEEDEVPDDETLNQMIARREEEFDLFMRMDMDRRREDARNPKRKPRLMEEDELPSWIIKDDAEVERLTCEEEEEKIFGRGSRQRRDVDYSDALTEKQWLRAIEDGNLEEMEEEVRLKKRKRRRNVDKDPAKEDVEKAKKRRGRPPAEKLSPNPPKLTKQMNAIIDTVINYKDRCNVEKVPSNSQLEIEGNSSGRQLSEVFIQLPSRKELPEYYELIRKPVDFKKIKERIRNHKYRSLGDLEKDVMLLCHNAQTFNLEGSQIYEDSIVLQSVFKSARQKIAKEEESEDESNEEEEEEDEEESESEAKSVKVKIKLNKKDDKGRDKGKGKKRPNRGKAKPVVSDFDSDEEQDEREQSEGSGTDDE
Description: as §1, §2

T1 sequence (P51532 whole entry, the tested form may be a part): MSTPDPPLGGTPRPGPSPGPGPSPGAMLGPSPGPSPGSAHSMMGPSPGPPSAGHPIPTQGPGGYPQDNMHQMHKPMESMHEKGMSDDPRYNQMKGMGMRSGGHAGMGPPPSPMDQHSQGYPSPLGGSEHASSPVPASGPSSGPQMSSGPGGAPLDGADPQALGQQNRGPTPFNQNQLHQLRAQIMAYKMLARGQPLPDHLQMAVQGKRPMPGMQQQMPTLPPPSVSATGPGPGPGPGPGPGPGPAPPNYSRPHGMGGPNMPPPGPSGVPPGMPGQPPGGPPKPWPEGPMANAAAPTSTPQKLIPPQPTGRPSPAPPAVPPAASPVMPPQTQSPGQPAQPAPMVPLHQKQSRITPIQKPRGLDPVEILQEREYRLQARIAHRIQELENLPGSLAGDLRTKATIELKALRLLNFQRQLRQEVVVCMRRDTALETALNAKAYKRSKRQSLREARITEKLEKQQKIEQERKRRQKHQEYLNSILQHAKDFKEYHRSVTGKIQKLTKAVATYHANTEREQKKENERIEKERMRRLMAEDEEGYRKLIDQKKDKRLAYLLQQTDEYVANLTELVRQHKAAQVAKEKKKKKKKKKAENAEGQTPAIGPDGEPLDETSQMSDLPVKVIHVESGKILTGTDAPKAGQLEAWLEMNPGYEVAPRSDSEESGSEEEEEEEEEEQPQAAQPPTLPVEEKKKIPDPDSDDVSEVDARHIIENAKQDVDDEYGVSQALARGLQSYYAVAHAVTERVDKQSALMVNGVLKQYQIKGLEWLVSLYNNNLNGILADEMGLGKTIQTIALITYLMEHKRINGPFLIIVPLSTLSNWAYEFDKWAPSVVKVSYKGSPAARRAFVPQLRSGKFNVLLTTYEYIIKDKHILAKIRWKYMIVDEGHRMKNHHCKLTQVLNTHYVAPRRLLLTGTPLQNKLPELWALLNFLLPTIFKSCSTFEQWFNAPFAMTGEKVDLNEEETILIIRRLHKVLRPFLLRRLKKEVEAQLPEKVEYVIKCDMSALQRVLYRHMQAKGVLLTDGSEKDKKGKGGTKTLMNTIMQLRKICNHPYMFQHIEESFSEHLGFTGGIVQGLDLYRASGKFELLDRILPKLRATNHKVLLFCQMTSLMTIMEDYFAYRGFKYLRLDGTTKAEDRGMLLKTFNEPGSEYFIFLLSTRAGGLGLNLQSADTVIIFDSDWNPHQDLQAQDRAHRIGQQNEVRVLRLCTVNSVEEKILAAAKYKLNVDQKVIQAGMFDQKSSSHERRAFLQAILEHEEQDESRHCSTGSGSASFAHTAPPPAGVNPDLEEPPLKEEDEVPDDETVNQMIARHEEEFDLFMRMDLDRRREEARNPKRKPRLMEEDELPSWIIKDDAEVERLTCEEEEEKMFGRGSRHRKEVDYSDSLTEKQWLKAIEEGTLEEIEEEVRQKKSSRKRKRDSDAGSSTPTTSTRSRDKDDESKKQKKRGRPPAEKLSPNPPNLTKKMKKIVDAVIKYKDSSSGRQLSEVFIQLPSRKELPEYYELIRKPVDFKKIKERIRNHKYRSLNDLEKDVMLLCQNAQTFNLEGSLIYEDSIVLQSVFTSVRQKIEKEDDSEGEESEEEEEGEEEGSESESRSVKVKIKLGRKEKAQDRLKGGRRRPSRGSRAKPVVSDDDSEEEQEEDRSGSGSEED

Dmax [1] | DC50 [1] | DC50 (HiBit-BRM fusion protein) | Compound | BRM HiBit Degradation Maximum (%) (HiBit-BRM fusion protein)
< 50% | > 1 µM | > 0.01 µM | Cc1ncsc1-c1ccc([C@H](C)NC(=O)[C@@H]2C[C@@H](O)CN2C(=O)[C@@H](c2cc(-c3ccc(N4CC(c5sc6nnc(-c7ccccc7O)cc6c5C)C4)nc3)no2)C(C)C)cc1 [Compound 49, (2S,4R)-4-hydroxy-1-((R)-2-(3-(6-(3-(3-(2-hydroxyphenyl)-5-methylthieno[2,3-c]pyridazin-6-yl)azetidin-1-yl)pyridin-3-yl)isoxazol-5-yl)-3-methylbutanoyl)-N-((S)-1-(4-(4-methylthiazol-5-yl)phenyl)ethyl)pyrrolidine-2-carboxamide] | B (“B” indicates maximum degradation ≥50%)
< 50% | > 1 µM | < 0.01 µM | Cc1ncsc1-c1ccc([C@H](C)NC(=O)[C@@H]2C[C@@H](O)CN2C(=O)[C@@H](c2cc(-c3cnc(N4CCC(c5sc6nnc(-c7ccccc7O)cc6c5C)CC4)cn3)no2)C(C)C)cc1 [Compound 28, (2S,4R)-4-hydroxy-1-((R)-2-(3-(5-(4-(3-(2-hydroxyphenyl)-5-methylthieno[2,3-c]pyridazin-6-yl)piperidin-1-yl)pyrazin-2-yl)isoxazol-5-yl)-3-methylbutanoyl)-N-((S)-1-(4-(4-methylthiazol-5-yl)phenyl)ethyl)pyrrolidine-2-carboxamide] | A (“A” indicates maximum degradation ≥75%)
> 50% | > 0.01 µM | < 0.01 µM | Cc1ncsc1-c1ccc([C@H](C)NC(=O)[C@@H]2C[C@@H](O)CN2C(=O)[C@@H](c2cc(N3CC[C@H](c4sc5nnc(-c6ccccc6O)cc5c4C)C3)no2)C(C)C)cc1 [Compound 78, (2S,4R)-4-hydroxy-1-((R)-2-(3-((S)-3-(3-(2-hydroxyphenyl)-5-methylthieno[2,3-c]pyridazin-6-yl)pyrrolidin-1-yl)isoxazol-5-yl)-3-methylbutanoyl)-N-((S)-1-(4-(4-methylthiazol-5-yl)phenyl)ethyl)pyrrolidine-2-carboxamide] | A (“A” indicates maximum degradation ≥75%)
< 50% | > 1 µM | < 0.01 µM | Cc1ncsc1-c1ccc([C@H](C)NC(=O)[C@@H]2C[C@@H](O)CN2C(=O)[C@@H](c2cc(-c3cnc(N4CC[C@H](c5sc6nnc(-c7ccccc7O)cc6c5C)C4)nc3)no2)C(C)C)cc1 [Compound 41, (2S,4R)-4-hydroxy-1-((R)-2-(3-(2-((S)-3-(3-(2-hydroxyphenyl)-5-methylthieno[2,3-c]pyridazin-6-yl)pyrrolidin-1-yl)pyrimidin-5-yl)isoxazol-5-yl)-3-methylbutanoyl)-N-((S)-1-(4-(4-methylthiazol-5-yl)phenyl)ethyl)pyrrolidine-2-carboxamide] | A (“A” indicates maximum degradation ≥75%)
> 75% | > 0.01 µM | > 0.01 µM | Cc1ncsc1-c1ccc([C@H](C)NC(=O)[C@@H]2C[C@@H](O)CN2C(=O)[C@@H](c2cc(-c3ccnc(N4CCC(c5sc6nnc(-c7ccccc7O)cc6c5C)CC4)c3)no2)C(C)C)cc1 [Compound 10, (2S,4R)-4-hydroxy-1-((R)-2-(3-(2-(4-(3-(2-hydroxyphenyl)-5-methylthieno[2,3-c]pyridazin-6-yl)piperidin-1-yl)pyridin-4-yl)isoxazol-5-yl)-3-methylbutanoyl)-N-((S)-1-(4-(4-methylthiazol-5-yl)phenyl)ethyl)pyrrolidine-2-carboxamide] | A (“A” indicates maximum degradation ≥75%)
< 50% | > 1 µM | < 0.01 µM | Cc1ncsc1-c1ccc([C@H](C)NC(=O)[C@@H]2C[C@@H](O)CN2C(=O)[C@@H](c2cc(-c3cnc(N4CC[C@H](c5cc6cc(-c7ccccc7O)nnc6s5)C4)nc3)no2)C(C)C)cc1 [Compound 6, (2S,4R)-4-hydroxy-1-((R)-2-(3-(2-((S)-3-(3-(2-hydroxyphenyl)thieno[2,3-c]pyridazin-6-yl)pyrrolidin-1-yl)pyrimidin-5-yl)isoxazol-5-yl)-3-methylbutanoyl)-N-((S)-1-(4-(4-methylthiazol-5-yl)phenyl)ethyl)pyrrolidine-2-carboxamide] | A (“A” indicates maximum degradation ≥75%)
< 50% |  | < 0.01 µM | COc1cc(-c2cc([C@H](C(=O)N3C[C@H](O)C[C@H]3C(=O)N[C@@H](C)c3ccc(-c4scnc4C)cc3)C(C)C)on2)cnc1N1CCC(c2sc3nnc(-c4ccccc4O)cc3c2C)CC1 [Compound 90, (2S,4R)-4-hydroxy-1-((R)-2-(3-(6-(4-(3-(2-hydroxyphenyl)-5-methylthieno[2,3-c]pyridazin-6-yl)piperidin-1-yl)-5-methoxypyridin-3-yl)isoxazol-5-yl)-3-methylbutanoyl)-N-((S)-1-(4-(4-methylthiazol-5-yl)phenyl)ethyl)pyrrolidine-2-carboxamide] | A (“A” indicates maximum degradation ≥75%)
< 50% |  | > 0.01 µM | Cc1cc(-c2cc([C@H](C(=O)N3C[C@H](O)C[C@H]3C(=O)N[C@@H](C)c3ccc(-c4scnc4C)cc3)C(C)C)on2)cnc1N1CC[C@@H](c2sc3nnc(-c4ccccc4O)cc3c2C)C1 [Compound 101, (2S,4R)-4-hydroxy-1-((R)-2-(3-(6-((R)-3-(3-(2-hydroxyphenyl)-5-methylthieno[2,3-c]pyridazin-6-yl)pyrrolidin-1-yl)-5-methylpyridin-3-yl)isoxazol-5-yl)-3-methylbutanoyl)-N-((S)-1-(4-(4-methylthiazol-5-yl)phenyl)ethyl)pyrrolidine-2-carboxamide] | A (“A” indicates maximum degradation ≥75%)
< 50% | > 1 µM | > 0.01 µM | Cc1ncsc1-c1ccc([C@H](C)NC(=O)[C@@H]2C[C@@H](O)CN2C(=O)[C@@H](c2cc(-c3cnc(N4CCC(O)(c5sc6nnc(-c7ccccc7O)cc6c5C)CC4)nc3)no2)C(C)C)cc1 [Compound 52, (2S,4R)-4-hydroxy-1-((R)-2-(3-(2-(4-hydroxy-4-(3-(2-hydroxyphenyl)-5-methylthieno[2,3-c]pyridazin-6-yl)piperidin-1-yl)pyrimidin-5-yl)isoxazol-5-yl)-3-methylbutanoyl)-N-((S)-1-(4-(4-methylthiazol-5-yl)phenyl)ethyl)pyrrolidine-2-carboxamide] | B (“B” indicates maximum degradation ≥50%)
< 50% |  | < 0.01 µM | Cc1ncsc1-c1ccc([C@H](C)NC(=O)[C@@H]2C[C@@H](O)CN2C(=O)[C@@H](c2cc(N3CC4(C3)CN(c3sc5nnc(-c6ccccc6O)cc5c3C3CC3)C4)no2)C(C)C)cc1 [Compound 71, (2S,4R)-1-((R)-2-(3-(6-(5-cyclopropyl-3-(2-hydroxyphenyl)thieno[2,3-c]pyridazin-6-yl)-2,6-diazaspiro[3.3]heptan-2-yl)isoxazol-5-yl)-3-methylbutanoyl)-4-hydroxy-N—((S)-1-(4-(4-methylthiazol-5-yl)phenyl)ethyl)pyrrolidine-2-carboxamide] | A (“A” indicates maximum degradation ≥75%)
< 50% | > 1 µM | > 0.01 µM | Cc1ncsc1-c1ccc([C@H](C)NC(=O)[C@@H]2C[C@@H](O)CN2C(=O)[C@@H](c2cc(-c3ccc(N4CCC(c5cc6cc(-c7ccccc7O)nnc6s5)CC4)nc3)no2)C(C)C)cc1 [Compound 39, (2S,4R)-4-hydroxy-1-((R)-2-(3-(6-(4-(3-(2-hydroxyphenyl)thieno[2,3-c]pyridazin-6-yl)piperidin-1-yl)pyridin-3-yl)isoxazol-5-yl)-3-methylbutanoyl)-N-((S)-1-(4-(4-methylthiazol-5-yl)phenyl)ethyl)pyrrolidine-2-carboxamide] | A (“A” indicates maximum degradation ≥75%)

Compound | Dmax [1] | DC50 [1] | DC50 (HiBit-BRM fusion protein) | BRM HiBit Degradation Maximum (%) (HiBit-BRM fusion protein)
Cc1ncsc1-c1ccc([C@H](C)NC(=O)[C@@H]2C[C@@H](O)CN2C(=O)[C@@H](c2cc(-c3cnc(N4C[C@H]5C[C@@H](C4)[C@@H]5c4cc5cc(-c6ccccc6O)nnc5s4)nc3)no2)C(C)C)cc1 [Compound 18, (2S,4R)-4-hydroxy-1-((R)-2-(3-(2-((1R,5S,6R)-6-(3-(2-hydroxyphenyl)thieno[2,3-c]pyridazin-6-yl)-3-azabicyclo[3.1.1]heptan-3-yl)pyrimidin-5-yl)isoxazol-5-yl)-3-methylbutanoyl)-N-((S)-1-(4-(4-methylthiazol-5-yl)phenyl)ethyl)pyrrolidine-2-carboxamide] | < 50% | > 1 µM | < 0.01 µM | A (“A” indicates maximum degradation ≥75%)
